Results published in patent US20060234916A1, “Cardioprotective agent” (Mizuo Miyazaki, priority 2003, published 2006).

Tests used:
[1] = Stability (half-life) in human blood plasma; format: in vitro ADME
Experimental: The agent of the present invention may contain the peptide derivative of an aryl diester of alpha-aminoalkylphosphonic acids. […] These derivatives are contained in human blood plasma, and remarkably stable under a variety of circumstances. For example, the preferred inhibitor Suc-Val-Pro-Phe^P(OPh)2, particularly preferably, Suc-Val-Pro-L-Phe^P(OPh)2 contained in the agent of the present invention, has a half-life of about 20 hours in human blood plasma. This stability is important, because it is predicted that a peritoneal exudate neutralizes most of protease inhibitors to damage their activity. Aminoalkylphosphonic acids are analogous of alpha-amino acids, and designated by the generally acceptable three-letter abbreviation for an amino acid followed by the superscript P. For example, diphenyl alpha-(N-benzyloxycarbonylamino)ethylphosphonate which is related to alanine is abbreviated Cbz-Ala^P(OPh)2.

chymase = target: T1, chymase (Homo sapiens, UniProt P23946); assay: Suppression of chymase activity in blood vessel tissue of the living body after use during operation; format: in vivo; conditions: used at 10 μM during the operation; effect for 4 weeks
T1 construct: the chymase activity in the blood vessel tissue of the living body; from tissue; host or cells: blood vessel tissue of the living body
T1 sequence (P23946 22-247): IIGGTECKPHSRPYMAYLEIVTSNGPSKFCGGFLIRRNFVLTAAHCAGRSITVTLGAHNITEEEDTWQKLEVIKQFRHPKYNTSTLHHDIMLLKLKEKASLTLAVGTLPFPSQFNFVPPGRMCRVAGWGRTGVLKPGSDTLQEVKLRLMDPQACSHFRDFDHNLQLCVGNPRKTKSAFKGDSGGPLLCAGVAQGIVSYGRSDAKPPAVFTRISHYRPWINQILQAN
Experimental: The agent of the present invention allows at least one protease inhibitor to be administered in a substantially sufficient amount so that the inhibitor may exist by an effective concentration in the site of heart to protect. […] The effective administration amount of chymase inhibitor (Suc-Val-Pro-L-Phe^P(Oph)2) can be selected in the range from 0.0001 to 100 mg per 1 kg of adult body weight, per one day. For example, it is administered intravenously by an amount selected in the range from 0.001 to 100 mg, preferably from 0.01 to 1 mg, and orally by an amount selected in the range from 0.1 to 100 mg, preferably from 0.1 to 10 mg.

[2] = system: Syrian hamsters myocardial infarction model; assay: Survival rate after myocardial infarction (left coronary artery ligation) with oral administration; format: in vivo; conditions: placebo 39.1%
Experimental: The left coronary artery was ligated in Syrian hamsters (SLC, Co., Ltd., Shizuoka, Japan), 6 weeks of age, weighing 85 to 90 g, to prepare a myocardial infarction model (Jpn. J. Pharmacol., 86, p. 203-214 2001 life Sci. 71 p. 437-446 2002). […] It should be noted that the significant test was performed by log rank test using the survival curve.

Row | Molecule | half-life in human blood plasma [1] | chymase activity in the blood vessel tissue of the living body (chymase) | survival rate up to the 14th day ([2]; 10 mg/kg orally once a day, administered from the day before the operation, log rank test significant, FIG. 1) [%] | survival rate up to the 14th day ([2]; 10 mg/kg orally, administered from the day after the operation, significant, FIG. 2) [%]
1 | Suc-Val-Pro-Phe^P(OPh)2 | about 20 hours |  |  | 
2 | CC(C)C(NC(=O)CCC(=O)O)C(=O)N1CCCC1C(=O)NC(Cc1ccccc1)P(=O)(Oc1ccccc1)Oc1ccccc1 [Suc-Val-Pro-L-Phe^P(OPh)2] | about 20 hours | suppress significantly | 88.9 | 88.9
